Experiment [1] concerns the target T1, Progesterone receptor (Homo sapiens, UniProt P06401).
T1 sequence (P06401 whole entry): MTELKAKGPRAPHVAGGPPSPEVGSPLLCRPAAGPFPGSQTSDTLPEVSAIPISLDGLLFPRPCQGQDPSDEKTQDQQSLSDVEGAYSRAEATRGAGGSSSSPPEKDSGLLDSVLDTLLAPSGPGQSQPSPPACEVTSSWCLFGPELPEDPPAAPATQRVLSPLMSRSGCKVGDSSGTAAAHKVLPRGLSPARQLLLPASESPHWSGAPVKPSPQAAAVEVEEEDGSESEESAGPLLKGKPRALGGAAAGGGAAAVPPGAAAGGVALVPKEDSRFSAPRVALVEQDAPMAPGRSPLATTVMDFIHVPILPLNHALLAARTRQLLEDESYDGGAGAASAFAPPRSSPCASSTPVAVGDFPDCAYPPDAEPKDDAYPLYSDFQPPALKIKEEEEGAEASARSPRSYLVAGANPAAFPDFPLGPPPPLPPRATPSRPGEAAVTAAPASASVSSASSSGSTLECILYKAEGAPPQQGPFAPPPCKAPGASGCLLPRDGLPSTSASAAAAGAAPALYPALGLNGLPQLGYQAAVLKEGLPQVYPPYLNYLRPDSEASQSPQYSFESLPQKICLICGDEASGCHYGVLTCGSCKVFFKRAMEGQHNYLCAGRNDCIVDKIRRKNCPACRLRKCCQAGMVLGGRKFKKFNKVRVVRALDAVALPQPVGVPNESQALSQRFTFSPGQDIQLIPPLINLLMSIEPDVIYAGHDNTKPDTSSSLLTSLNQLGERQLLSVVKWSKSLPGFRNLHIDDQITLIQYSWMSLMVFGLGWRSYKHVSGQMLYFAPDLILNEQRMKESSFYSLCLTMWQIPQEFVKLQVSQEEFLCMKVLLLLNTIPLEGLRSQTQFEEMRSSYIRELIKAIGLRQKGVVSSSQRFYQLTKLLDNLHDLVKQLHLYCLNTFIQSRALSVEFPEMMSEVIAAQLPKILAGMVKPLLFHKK
Format: functional.

Experiment [2] deals with T2, Cannabinoid receptor 1 (Homo sapiens, UniProt P21554).
For experiment [3], the target named is Muscarinic acetylcholine receptor M3 (Homo sapiens, UniProt P20309).
For experiment [4], the target named is T1, Progesterone receptor. Format: functional. This is another data set of the same source.
Experiment [5] deals with Voltage-dependent L-type calcium channel subunit alpha-1C (Rattus norvegicus, UniProt P22002). Format: functional.
For experiment [6], the target named is T2, Cannabinoid receptor 1. Format: functional, cell-based.
Experiment [7] deals with T3, 5-hydroxytryptamine receptor 1A (Homo sapiens, UniProt P08908).
T3 sequence (P08908 whole entry): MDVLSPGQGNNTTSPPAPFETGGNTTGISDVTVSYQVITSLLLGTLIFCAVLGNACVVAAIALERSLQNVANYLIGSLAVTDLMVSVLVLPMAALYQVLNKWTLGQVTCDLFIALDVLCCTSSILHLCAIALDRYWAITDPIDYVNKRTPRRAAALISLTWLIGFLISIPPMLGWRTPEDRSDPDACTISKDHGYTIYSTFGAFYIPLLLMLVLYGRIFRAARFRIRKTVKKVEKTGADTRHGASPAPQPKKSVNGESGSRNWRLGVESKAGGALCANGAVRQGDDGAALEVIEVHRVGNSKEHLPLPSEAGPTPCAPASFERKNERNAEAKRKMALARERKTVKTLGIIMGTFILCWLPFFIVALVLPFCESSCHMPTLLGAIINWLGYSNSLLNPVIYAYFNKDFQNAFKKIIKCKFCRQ
Type of experiment: functional, cell-based.

The target of experiment [8] is T2, Cannabinoid receptor 1. Format: functional, cell-based. This is another data set of the same source.
The next experiment deals with Mu-type opioid receptor (Homo sapiens, UniProt P35372).
The target in experiment [9] is 5-hydroxytryptamine receptor 2B (Homo sapiens, UniProt P41595). Type of experiment: functional, cell-based.
The next experiment addresses Histamine H3 receptor (Homo sapiens, UniProt Q9Y5N1).
Experiment [10] deals with Prostaglandin G/H synthase 1 (Homo sapiens, UniProt P23219). Type of experiment: functional.

The term AC50 denotes the concentration giving half of the maximal activity seen.
Also: assay procedure not described here.

Sequence of Voltage-dependent L-type calcium channel subunit alpha-1C (P22002 whole entry): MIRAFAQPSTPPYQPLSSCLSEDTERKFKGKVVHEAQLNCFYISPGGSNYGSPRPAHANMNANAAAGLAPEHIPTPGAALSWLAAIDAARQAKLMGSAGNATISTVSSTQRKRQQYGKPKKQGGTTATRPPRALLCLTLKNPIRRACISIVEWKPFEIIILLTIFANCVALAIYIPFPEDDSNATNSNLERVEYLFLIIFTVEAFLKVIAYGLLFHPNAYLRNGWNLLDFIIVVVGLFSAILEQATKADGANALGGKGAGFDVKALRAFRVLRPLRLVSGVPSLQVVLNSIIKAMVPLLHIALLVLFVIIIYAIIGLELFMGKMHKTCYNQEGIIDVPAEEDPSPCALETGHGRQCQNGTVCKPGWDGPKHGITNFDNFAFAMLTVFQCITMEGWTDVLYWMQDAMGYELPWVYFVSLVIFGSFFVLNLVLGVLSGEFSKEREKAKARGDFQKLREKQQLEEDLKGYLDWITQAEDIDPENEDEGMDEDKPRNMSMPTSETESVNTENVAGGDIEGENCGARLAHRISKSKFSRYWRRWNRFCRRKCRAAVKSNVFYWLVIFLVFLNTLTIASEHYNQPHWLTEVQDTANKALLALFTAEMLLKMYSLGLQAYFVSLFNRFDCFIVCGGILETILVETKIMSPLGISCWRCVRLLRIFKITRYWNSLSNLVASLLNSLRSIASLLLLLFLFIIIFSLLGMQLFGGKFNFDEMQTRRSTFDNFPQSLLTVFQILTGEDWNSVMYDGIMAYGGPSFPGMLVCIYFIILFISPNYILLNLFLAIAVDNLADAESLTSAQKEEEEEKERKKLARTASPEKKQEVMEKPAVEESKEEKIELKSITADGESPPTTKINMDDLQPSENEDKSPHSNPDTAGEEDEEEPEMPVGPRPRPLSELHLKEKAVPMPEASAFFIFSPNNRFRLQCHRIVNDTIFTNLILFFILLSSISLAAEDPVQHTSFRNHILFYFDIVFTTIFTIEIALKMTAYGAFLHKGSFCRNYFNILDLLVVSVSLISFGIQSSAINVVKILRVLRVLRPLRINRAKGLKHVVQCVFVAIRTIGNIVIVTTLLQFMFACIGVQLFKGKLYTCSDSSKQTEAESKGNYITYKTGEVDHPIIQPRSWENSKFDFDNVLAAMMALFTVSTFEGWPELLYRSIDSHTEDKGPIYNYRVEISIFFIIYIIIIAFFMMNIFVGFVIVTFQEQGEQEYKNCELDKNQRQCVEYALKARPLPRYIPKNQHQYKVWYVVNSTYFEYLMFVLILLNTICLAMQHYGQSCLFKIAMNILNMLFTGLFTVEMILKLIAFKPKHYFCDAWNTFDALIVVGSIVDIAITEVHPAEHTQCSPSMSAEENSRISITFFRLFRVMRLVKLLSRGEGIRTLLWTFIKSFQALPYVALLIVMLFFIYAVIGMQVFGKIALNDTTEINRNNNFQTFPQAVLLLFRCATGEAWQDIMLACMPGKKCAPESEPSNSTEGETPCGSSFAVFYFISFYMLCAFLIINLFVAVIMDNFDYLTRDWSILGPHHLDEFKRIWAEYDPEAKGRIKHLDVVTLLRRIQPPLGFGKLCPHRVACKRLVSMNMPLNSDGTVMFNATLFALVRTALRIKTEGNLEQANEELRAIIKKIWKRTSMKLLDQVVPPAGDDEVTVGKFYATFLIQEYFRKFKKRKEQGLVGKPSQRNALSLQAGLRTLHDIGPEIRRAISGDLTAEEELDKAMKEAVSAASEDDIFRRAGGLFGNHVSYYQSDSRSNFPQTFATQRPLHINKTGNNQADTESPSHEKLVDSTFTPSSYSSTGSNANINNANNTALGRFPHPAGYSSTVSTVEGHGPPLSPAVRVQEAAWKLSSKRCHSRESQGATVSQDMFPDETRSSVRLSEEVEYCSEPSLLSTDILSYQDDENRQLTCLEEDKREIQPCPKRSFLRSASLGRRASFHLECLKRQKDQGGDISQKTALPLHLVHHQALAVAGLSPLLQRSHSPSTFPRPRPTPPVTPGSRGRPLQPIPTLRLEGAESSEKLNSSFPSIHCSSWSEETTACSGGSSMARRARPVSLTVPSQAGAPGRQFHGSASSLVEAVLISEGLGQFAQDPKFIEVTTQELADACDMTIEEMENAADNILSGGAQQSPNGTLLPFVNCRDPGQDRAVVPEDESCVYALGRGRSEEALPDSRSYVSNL
Sequence of Muscarinic acetylcholine receptor M3 (P20309 whole entry): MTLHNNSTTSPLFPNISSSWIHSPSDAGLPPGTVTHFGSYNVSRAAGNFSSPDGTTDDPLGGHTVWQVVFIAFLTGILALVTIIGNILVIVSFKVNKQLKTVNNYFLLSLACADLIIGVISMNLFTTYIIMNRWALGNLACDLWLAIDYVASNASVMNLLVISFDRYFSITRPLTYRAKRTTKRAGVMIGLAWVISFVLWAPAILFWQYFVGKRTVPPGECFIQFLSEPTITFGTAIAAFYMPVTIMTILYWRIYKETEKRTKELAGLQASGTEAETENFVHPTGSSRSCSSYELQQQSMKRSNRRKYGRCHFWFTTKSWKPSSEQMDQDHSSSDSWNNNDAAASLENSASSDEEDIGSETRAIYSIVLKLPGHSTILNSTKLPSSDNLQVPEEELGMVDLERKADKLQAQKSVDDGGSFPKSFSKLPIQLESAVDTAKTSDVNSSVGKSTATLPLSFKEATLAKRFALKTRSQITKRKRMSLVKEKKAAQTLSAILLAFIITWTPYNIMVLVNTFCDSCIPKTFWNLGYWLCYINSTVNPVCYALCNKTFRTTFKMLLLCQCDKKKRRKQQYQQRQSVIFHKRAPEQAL
T2 sequence (P21554 whole entry): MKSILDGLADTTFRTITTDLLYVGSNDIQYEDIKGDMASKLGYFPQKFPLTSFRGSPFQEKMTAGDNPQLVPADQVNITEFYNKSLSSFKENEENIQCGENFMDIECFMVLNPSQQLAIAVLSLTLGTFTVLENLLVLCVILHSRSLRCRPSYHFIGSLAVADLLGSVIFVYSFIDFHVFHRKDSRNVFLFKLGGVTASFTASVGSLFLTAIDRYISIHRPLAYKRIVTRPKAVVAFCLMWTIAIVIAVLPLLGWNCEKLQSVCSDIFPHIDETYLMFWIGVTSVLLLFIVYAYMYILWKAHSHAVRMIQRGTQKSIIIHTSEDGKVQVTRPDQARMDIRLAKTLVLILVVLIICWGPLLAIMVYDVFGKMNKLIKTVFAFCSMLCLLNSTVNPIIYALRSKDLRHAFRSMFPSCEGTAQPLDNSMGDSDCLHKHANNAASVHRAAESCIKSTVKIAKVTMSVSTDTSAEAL
Sequence of Histamine H3 receptor (Q9Y5N1 whole entry): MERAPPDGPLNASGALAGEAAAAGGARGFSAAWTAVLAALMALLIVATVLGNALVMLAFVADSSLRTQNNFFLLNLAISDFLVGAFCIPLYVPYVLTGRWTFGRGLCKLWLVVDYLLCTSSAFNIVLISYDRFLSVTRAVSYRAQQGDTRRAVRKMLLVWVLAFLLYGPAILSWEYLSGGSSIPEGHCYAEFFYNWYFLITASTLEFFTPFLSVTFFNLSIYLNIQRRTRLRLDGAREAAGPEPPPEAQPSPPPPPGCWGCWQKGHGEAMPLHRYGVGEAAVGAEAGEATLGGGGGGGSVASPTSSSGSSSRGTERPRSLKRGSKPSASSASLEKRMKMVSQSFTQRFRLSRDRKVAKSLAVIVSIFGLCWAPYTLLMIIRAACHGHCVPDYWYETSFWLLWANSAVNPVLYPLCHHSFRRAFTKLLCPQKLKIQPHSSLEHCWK
Sequence of Prostaglandin G/H synthase 1 (P23219 whole entry): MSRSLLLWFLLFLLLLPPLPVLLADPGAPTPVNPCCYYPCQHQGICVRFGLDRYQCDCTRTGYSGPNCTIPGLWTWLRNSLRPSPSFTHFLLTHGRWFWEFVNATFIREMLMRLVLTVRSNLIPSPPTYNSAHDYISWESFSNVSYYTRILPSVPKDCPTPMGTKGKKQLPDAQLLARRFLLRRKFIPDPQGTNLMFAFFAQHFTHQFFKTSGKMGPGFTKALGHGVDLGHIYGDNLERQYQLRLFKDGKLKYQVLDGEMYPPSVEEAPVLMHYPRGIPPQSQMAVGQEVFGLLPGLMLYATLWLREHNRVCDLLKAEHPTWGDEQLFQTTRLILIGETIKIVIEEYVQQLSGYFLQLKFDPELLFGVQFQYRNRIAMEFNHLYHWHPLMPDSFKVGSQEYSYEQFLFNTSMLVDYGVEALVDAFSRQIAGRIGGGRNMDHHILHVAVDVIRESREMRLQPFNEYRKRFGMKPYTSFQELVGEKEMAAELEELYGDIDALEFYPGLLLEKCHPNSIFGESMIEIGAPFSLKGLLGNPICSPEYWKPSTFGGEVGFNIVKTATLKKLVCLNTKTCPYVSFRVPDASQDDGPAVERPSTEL
Sequence of Mu-type opioid receptor (P35372 whole entry): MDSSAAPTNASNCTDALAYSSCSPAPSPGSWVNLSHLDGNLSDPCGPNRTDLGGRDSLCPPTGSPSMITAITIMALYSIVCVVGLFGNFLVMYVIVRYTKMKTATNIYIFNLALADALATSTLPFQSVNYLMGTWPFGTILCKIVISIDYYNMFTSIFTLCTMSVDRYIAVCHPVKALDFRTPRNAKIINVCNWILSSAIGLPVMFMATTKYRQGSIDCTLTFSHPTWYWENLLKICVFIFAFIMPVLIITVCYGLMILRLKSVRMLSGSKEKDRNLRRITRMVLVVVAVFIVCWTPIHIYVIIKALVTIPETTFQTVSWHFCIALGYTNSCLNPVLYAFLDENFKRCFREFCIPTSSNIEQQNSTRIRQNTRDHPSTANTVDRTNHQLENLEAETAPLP

Take `CCCCN1C[C@H](O)[C@@H](O)[C@H](O)[C@H]1CO`: the AC50 (at Progesterone receptor [1]; at Cannabinoid receptor 1 [2]; in experiment [3]; on Progesterone receptor [4]; in experiment [5]) was above 30 µM throughout.

Consider `CCOC(=O)[C@H](CCc1ccccc1)N[C@@H](C)C(=O)N1[C@H](C(=O)O)C[C@@H]2CCC[C@@H]21`, for which the AC50 on Cannabinoid receptor 1 [6] is above 30 µM; in experiment [7], above 10 µM; on Cannabinoid receptor 1 [8], above 30 µM; at Cannabinoid receptor 1 [2], above 10 µM; in experiment [5] it was above 10 µM.

Consider `CC(C)C[C@H]1C(=O)N2CCC[C@H]2[C@]2(O)O[C@](NC(=O)[C@@H]3C=C4c5cccc6[nH]c(Br)c(c56)C[C@H]4N(C)C3)(C(C)C)C(=O)N12` [BROMOCRIPTINE], for which the AC50 at Cannabinoid receptor 1 [6] was above 30 µM; at Mu-type opioid receptor, 3.45 µM; in [9] it was above 30 µM; at Histamine H3 receptor it was above 30 µM; in experiment [7], 0.17 µM; on Progesterone receptor [1] it was above 30 µM. Also, the AC50 on Cannabinoid receptor 1 [8] was above 30 µM; in experiment [10] it was 4.61 µM; at Cannabinoid receptor 1 [2], above 10 µM; at Progesterone receptor [4], above 30 µM; in experiment [5], above 10 µM.

With `Cc1ccc(-c2cc(C(F)(F)F)nn2-c2ccc(S(N)(=O)=O)cc2)cc1` [CELECOXIB], the AC50 at Cannabinoid receptor 1 [6] was above 30 µM; in experiment [7], above 10 µM; at Cannabinoid receptor 1 [8], above 30 µM; on Cannabinoid receptor 1 [2], above 10 µM; in experiment [5], above 10 µM.

Consider `CC1=C(C(=O)O)N2C(=O)[C@@H](NC(=O)[C@H](N)c3ccccc3)[C@H]2SC1` [CEPHALEXIN ANHYDROUS], for which the AC50 was above 30 µM at Cannabinoid receptor 1 [6]; above 10 µM in experiment [7]; above 30 µM at Cannabinoid receptor 1 [8]; above 10 µM on Cannabinoid receptor 1 [2]; above 10 µM in experiment [5].

Take `CN1C(=O)CCS(=O)(=O)C1c1ccc(Cl)cc1` (stereo not drawn) [CHLORMEZANONE]: the AC50 in [7] was above 10 µM; on Progesterone receptor [1], above 10 µM; at Cannabinoid receptor 1 [2], above 10 µM; in experiment [3] it was above 30 µM; on Progesterone receptor [4] it was above 10 µM; in [5] it was above 10 µM.

In the case of `CN(C)CCC(c1ccc(Cl)cc1)c1ccccn1` (stereo not drawn) [CHLORPHENIRAMINE], the AC50 at Cannabinoid receptor 1 [6] was above 30 µM; in [7], above 10 µM; on Cannabinoid receptor 1 [8], above 30 µM; at Cannabinoid receptor 1 [2] it was above 10 µM; in [5], above 10 µM.

Turning to `O=C1Nc2ccc(Cl)cc2[C@@](C#CC2CC2)(C(F)(F)F)O1` [EFAVIRENZ], the AC50 on Cannabinoid receptor 1 [6] was above 30 µM; in experiment [7], above 10 µM; on Progesterone receptor [1], above 30 µM; at Cannabinoid receptor 1 [8], above 30 µM; at Cannabinoid receptor 1 [2] it was 20.7 µM; in [3], above 30 µM. For the same compound, the AC50 was 14 µM at Progesterone receptor [4] and 18.8 µM in experiment [5].

As for `C[C@]12CCC(=O)C=C1CC[C@@H]1[C@@H]2[C@@H](O)C[C@@]2(C)[C@H]1CC[C@]2(O)C(=O)CO` [HYDROCORTISONE], the concentration at half-maximal activity (AC50) at Cannabinoid receptor 1 [6] is above 30 µM; in experiment [7] it was above 10 µM; at Cannabinoid receptor 1 [8] it was above 30 µM; at Cannabinoid receptor 1 [2], above 10 µM; in [5], above 10 µM.

Turning to `O=P1(NCCCl)OCCCN1CCCl` (stereo not drawn) [IFOSFAMIDE], the AC50 (in experiment [7]; on Progesterone receptor [1]; at Cannabinoid receptor 1 [2]; at Progesterone receptor [4]; in experiment [5]) was above 30 µM each time.

In the case of `CCC(C)n1ncn(-c2ccc(N3CCN(c4ccc(OCC5COC(Cn6cncn6)(c6ccc(Cl)cc6Cl)O5)cc4)CC3)cc2)c1=O` (stereo not drawn) [ITRACONAZOLE], the AC50 (at Cannabinoid receptor 1 [6]; in experiment [7]; on Progesterone receptor [1]; at Cannabinoid receptor 1 [8]; on Cannabinoid receptor 1 [2]; at Progesterone receptor [4]) was above 30 µM throughout. In addition, the half-maximal activity concentration (AC50) in experiment [5] was above 30 µM.

As to `c1ccc([C@H]2CN3CCSC3=N2)cc1` [LEVAMISOLE], the AC50 (at Cannabinoid receptor 1 [6]; in [7]; on Progesterone receptor [1]; on Cannabinoid receptor 1 [8]; on Cannabinoid receptor 1 [2]; on Progesterone receptor [4]) was above 30 µM each time. For the same compound, in [5], the AC50 is above 30 µM.

On to `C[C@@H](O)[C@H]1C(=O)N2C(C(=O)O)=C(S[C@@H]3CN[C@H](C(=O)N(C)C)C3)[C@H](C)[C@H]12` [MEROPENEM], for which the AC50 on Cannabinoid receptor 1 [6] was above 300 µM; in [7] it was above 300 µM; on Progesterone receptor [1], above 300 µM; on Cannabinoid receptor 1 [8] it was above 300 µM; at Cannabinoid receptor 1 [2], above 10 µM; at Progesterone receptor [4] it was above 300 µM. For the same compound, the AC50 in experiment [5] is above 10 µM.

Consider `CCCN1C[C@H](CSC)C[C@@H]2c3cccc4[nH]cc(c34)C[C@H]21` [PERGOLIDE], for which the half-maximal activity concentration (AC50) is above 10 µM on Cannabinoid receptor 1 [6]; above 30 µM at Progesterone receptor [1]; above 30 µM at Cannabinoid receptor 1 [8]; above 10 µM on Cannabinoid receptor 1 [2]; above 30 µM on Progesterone receptor [4]; above 10 µM in experiment [5].

For `COc1ccccc1OCC(O)CN1CCN(CC(=O)Nc2c(C)cccc2C)CC1` (stereo not drawn) [RANOLAZINE], the AC50 (at Progesterone receptor [1]; at Cannabinoid receptor 1 [2]; in experiment [3]; on Progesterone receptor [4]; in experiment [5]) was above 30 µM throughout.

For the compound `Cn1nnc2c(C(N)=O)ncn2c1=O` [TEMOZOLOMIDE], the half-maximal activity concentration (AC50) was above 30 µM on Cannabinoid receptor 1 [6]; above 30 µM in experiment [7]; above 30 µM at Progesterone receptor [1]; above 30 µM on Cannabinoid receptor 1 [8]; above 10 µM at Cannabinoid receptor 1 [2]; above 30 µM in experiment [3]. In addition, the concentration at half-maximal activity (AC50) at Progesterone receptor [4] was above 30 µM; in experiment [5] it was above 10 µM.

`Clc1ccc2nsnc2c1NC1=NCCN1` [TIZANIDINE]: the AC50 in [7] is above 10 µM; at Cannabinoid receptor 1 [8] it was above 30 µM; at Cannabinoid receptor 1 [2], above 10 µM; in [3], above 10 µM; in [5], above 10 µM.

As for `O=C(O[C@H]1C[C@H]2CC[C@@H](C1)[N+]21CCCC1)C(O)(c1ccccc1)c1ccccc1` [TROSPIUM], the half-maximal activity concentration (AC50) was above 30 µM in experiment [7]; above 30 µM at Progesterone receptor [1]; above 30 µM on Cannabinoid receptor 1 [2]; 0.0089 µM in experiment [3]; above 30 µM at Progesterone receptor [4]; above 30 µM in experiment [5].

As to `Nc1ccn([C@H]2CC[C@@H](CO)O2)c(=O)n1` [ZALCITABINE], the AC50 is above 30 µM on Cannabinoid receptor 1 [6]; above 10 µM in experiment [7]; above 30 µM on Cannabinoid receptor 1 [8]; above 10 µM on Cannabinoid receptor 1 [2]; above 30 µM in experiment [3]; above 10 µM in experiment [5].

In the case of `NS(=O)(=O)Cc1noc2ccccc12` [ZONISAMIDE], the AC50 in [7] was above 10 µM; on Progesterone receptor [1], above 10 µM; at Cannabinoid receptor 1 [2], above 10 µM; in experiment [3] it was above 30 µM; at Progesterone receptor [4] it was above 10 µM; in [5], above 10 µM.
